9 molecules from PubChem BioAssay (NCI) can be followed below.

“And” between values parts separate entries of the source, which are not always exact repeats. Identical values can stand only once.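 Growth conditions: 96-well plates. Treatment: test compound, 48 hours, 5 concentrations. Analysis: linear interpolation between bracketing concentrations; unreached endpoints set to highest concentration. The concentration for 50% growth inhibition is given as GI50. The concentration for full growth arrest is given as TGI.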

Among the test systems are SF-539 CNS; HCC-2998 colon; NCI/ADR-RES ovarian; PC-3 prostate; SK-MEL-28 melanoma; MCF7 breast; SW-620 colon; NCI-H460 lung; HCT-15 colon; SF-268 CNS.
What all share (assay): growth of human tumour cells (NCI), 48 h

For `CCCCN(CCCC)CCC(O)c1cc2ccc(C(F)(F)F)cc2c2cc(C(F)(F)F)ccc12` (stereo not given), the GI50 in the experiment with SF-539 CNS is 2.04 µM; in the experiment on HCC-2998 colon it was 2.08 µM; in the experiment on NCI/ADR-RES ovarian, 2.69 µM; with PC-3 prostate it was 2.52 µM; in the experiment on SK-MEL-28 melanoma, 2.21 µM; in the experiment on MCF7 breast, 1.62 µM. For the same molecule, the GI50 was 1.76 µM with SW-620 colon, 1.84 µM in the experiment on NCI-H460 lung, 2.15 µM with HCT-15 colon and 4.98 µM with SF-268 CNS. Further, the TGI with SF-539 CNS came out at 5.44 µM; in the experiment with HCC-2998 colon, 4.58 µM; in the experiment with NCI/ADR-RES ovarian, 11.9 µM; with PC-3 prostate, 9.67 µM; in the experiment on SK-MEL-28 melanoma it was 4.23 µM; with MCF7 breast, 3.74 µM. Moreover, the TGI came to 5.13 µM in the experiment on SW-620 colon, 4.09 µM with NCI-H460 lung, 7.29 µM in the experiment on HCT-15 colon and 18.3 µM with SF-268 CNS.
Take `CN(C)c1ncnc2c1ccn2C1OC(CO)C(O)C1O` (stereo not given): the GI50 with SF-539 CNS is over 33.5 µM; in the experiment on HCC-2998 colon it was 1.89 µM; in the experiment with NCI/ADR-RES ovarian, 1.3 µM; in the experiment with PC-3 prostate it was 0.477 µM; in the experiment with SK-MEL-28 melanoma, over 100 µM; with MCF7 breast, 0.115 µM. The GI50 was 2.55 µM with SW-620 colon, 4.19 µM with NCI-H460 lung, 1.1 µM in the experiment on HCT-15 colon and 3.63 µM with SF-268 CNS. Moreover, the TGI in the experiment with SF-539 CNS is over 100 µM; in the experiment on HCC-2998 colon, 18.1 µM; in the experiment on NCI/ADR-RES ovarian, over 30.1 µM; in the experiment with PC-3 prostate, 11.5 µM; in the experiment on SK-MEL-28 melanoma, over 100 µM; with MCF7 breast it was 7.32 µM. Besides, the TGI with SW-620 colon was over 100 µM; with NCI-H460 lung it was over 100 µM; with HCT-15 colon, over 66.2 µM; in the experiment with SF-268 CNS, over 100 µM.
Consider `Nc1cc(-c2ccccc2)n(C(=O)Nc2ccc(Oc3ccccc3)cc2)n1`, for which the GI50 in the experiment on SF-539 CNS is 30.1 µM; in the experiment on HCC-2998 colon it was over 100 µM; in the experiment with NCI/ADR-RES ovarian, 75.4 µM; in the experiment with PC-3 prostate, over 100 µM; with SK-MEL-28 melanoma it was 1.62 µM; with MCF7 breast, 61.7 µM. The GI50 in the experiment on SW-620 colon is over 100 µM; in the experiment with NCI-H460 lung, 69 µM; in the experiment on HCT-15 colon, over 100 µM; in the experiment on SF-268 CNS it was 30.8 µM. In addition, the TGI with SF-539 CNS is over 100 µM; in the experiment on HCC-2998 colon, over 100 µM; in the experiment with NCI/ADR-RES ovarian, over 100 µM; in the experiment with PC-3 prostate it was over 100 µM; in the experiment on SK-MEL-28 melanoma, 39.2 µM; in the experiment on MCF7 breast, over 100 µM. Moreover, the TGI with SW-620 colon, in the experiment with NCI-H460 lung, with HCT-15 colon and in the experiment with SF-268 CNS was over 100 µM each time.
For `COc1cc2nncc(SCc3ccc(Cl)c(Cl)c3)c2cc1OC`, the TGI with SF-539 CNS, with HCC-2998 colon, in the experiment on NCI/ADR-RES ovarian, with PC-3 prostate, in the experiment with SK-MEL-28 melanoma and in the experiment on MCF7 breast was over 100 µM each time. Further, the TGI in the experiment with SW-620 colon, in the experiment on NCI-H460 lung, with HCT-15 colon and in the experiment with SF-268 CNS was over 100 µM in each case.
Consider `c1ccc2c(CN3CCC(C4CCN(Cc5cccc6ccccc56)CC4)CC3)cccc2c1`, for which the GI50 was 3.63 µM and 8.99 µM in the experiment on SF-539 CNS; 1.48 µM and 3.1 µM in the experiment on SK-MEL-28 melanoma; 3.02 µM and 11.4 µM in the experiment with SW-620 colon; 2.95 µM and 8.46 µM in the experiment with HCT-15 colon; 8.99 µM and 78.7 µM in the experiment with SF-268 CNS. Besides, the TGI is 9.53 µM and 18 µM in the experiment on SF-539 CNS; 2.97 µM and 5.61 µM in the experiment with HCC-2998 colon; over 100 µM with NCI/ADR-RES ovarian; over 100 µM in the experiment on PC-3 prostate; 2.85 µM and 8.19 µM in the experiment with SK-MEL-28 melanoma; over 73.7 µM in the experiment with MCF7 breast. The TGI in the experiment on SW-620 colon is 9.17 µM and 40.1 µM; with NCI-H460 lung, 52.4 µM and 46.8 µM; in the experiment with HCT-15 colon, 16.6 µM and > 100 µM; with SF-268 CNS, 28.4 µM and > 100 µM.
Regarding `O=C1COCCN1c1ccc(NCc2cn(C(=O)c3ccc(Cl)cc3)c3ccccc23)cc1`, the GI50 was 8.49 µM in the experiment on SF-539 CNS; 12.1 µM in the experiment on HCC-2998 colon; 5.77 µM in the experiment on NCI/ADR-RES ovarian; 4.78 µM in the experiment on PC-3 prostate; 17.8 µM in the experiment with SK-MEL-28 melanoma; 0.293 µM with MCF7 breast. Further, the GI50 in the experiment on SW-620 colon is 2.23 µM; in the experiment with NCI-H460 lung it was 0.268 µM; with HCT-15 colon, 4.07 µM; in the experiment with SF-268 CNS, 13.4 µM. Also, the TGI is 26.2 µM in the experiment on SF-539 CNS; 88.4 µM with HCC-2998 colon; 55.8 µM with NCI/ADR-RES ovarian; 49.5 µM in the experiment with PC-3 prostate; 80.9 µM in the experiment with SK-MEL-28 melanoma; 15 µM in the experiment with MCF7 breast. The TGI in the experiment with SW-620 colon was over 100 µM; in the experiment with NCI-H460 lung, 12.7 µM; in the experiment on HCT-15 colon, 91.2 µM; in the experiment on SF-268 CNS it was 95.1 µM.
With `Cn1ncnc1C1c2n[nH]c(=O)c3cc(F)cc(c23)NC1c1ccc(F)cc1` (stereo not given), the GI50 with SF-539 CNS is 5.39 µM; in the experiment with HCC-2998 colon, over 100 µM; in the experiment with NCI/ADR-RES ovarian it was over 100 µM; with PC-3 prostate, over 100 µM; in the experiment with SK-MEL-28 melanoma it was over 100 µM; in the experiment with MCF7 breast it was 1.57 µM. Besides, the GI50 with SW-620 colon is over 41 µM; with NCI-H460 lung, 0.193 µM; in the experiment on HCT-15 colon, over 100 µM; in the experiment with SF-268 CNS, 3.3 µM. In addition, the TGI in the experiment with SF-539 CNS, in the experiment on HCC-2998 colon, with NCI/ADR-RES ovarian, in the experiment on PC-3 prostate, in the experiment on SK-MEL-28 melanoma and in the experiment with MCF7 breast was over 100 µM each time. The TGI in the experiment with SW-620 colon, in the experiment on NCI-H460 lung, in the experiment on HCT-15 colon and in the experiment with SF-268 CNS was over 100 µM in each case.
As for `O=C1NC(c2ccccc2)N=C2Oc3ccccc3C=C12` (stereo not given), the TGI was 17.6 µM in the experiment with SF-539 CNS; 0.238 µM with HCC-2998 colon; over 31.3 µM in the experiment with NCI/ADR-RES ovarian; over 100 µM in the experiment with PC-3 prostate; over 100 µM in the experiment with SK-MEL-28 melanoma; over 100 µM in the experiment with MCF7 breast. Moreover, the TGI in the experiment on SW-620 colon is over 100 µM; in the experiment with NCI-H460 lung, over 43.7 µM; with HCT-15 colon, over 100 µM; in the experiment on SF-268 CNS, over 84.7 µM.
As for `COC(=O)Nc1nc2ccc(S(=O)(=O)c3ccc(NC(=O)Nc4cc(C(F)(F)F)ccc4F)cc3)cc2[nH]1`, the GI50 in the experiment with SF-539 CNS, in the experiment with HCC-2998 colon, in the experiment on NCI/ADR-RES ovarian, with PC-3 prostate, in the experiment on SK-MEL-28 melanoma and in the experiment with MCF7 breast was over 25 µM throughout. Besides, the GI50 with SW-620 colon, in the experiment on NCI-H460 lung, with HCT-15 colon and in the experiment with SF-268 CNS was over 25 µM each time. The TGI in the experiment with SF-539 CNS, in the experiment on HCC-2998 colon, with NCI/ADR-RES ovarian, with PC-3 prostate, with SK-MEL-28 melanoma and with MCF7 breast was over 25 µM throughout. Moreover, the TGI with SW-620 colon, in the experiment with NCI-H460 lung, with HCT-15 colon and in the experiment with SF-268 CNS was over 25 µM throughout.
